# According to patent US9701709B2 (REATA PHARMACEUTICALS, INC., priority 2012, dated 2017):
# Read-outs that look alike come from different tables or passages of the source.
# Legend:
# [1] = tested on: acute radiation dermatitis; assay: Acute radiation dermatitis in BALB/c mice; assay type: in vivo, mouse
# [2] = tested on: bleomycin-induced pulmonary fibrosis
# ovalbumin-induced asthma = assay: Ovalbumin-induced asthma in mice; assay type: in vivo, mouse
# From the text: Mice were sensitized with an IP injection of ovalbumin and aluminum hydroxide on Day 0 and Day 14 and challenged intranasally with ovalbumin in saline on Days 14, 25, 26, and 27. […] An increase in the number of T cells and B cells was also observed in the vehicle-treated mice.
# [3] = tested on: NQO1 enzymatic activity in RAW264.7 mouse macrophage cells; assay: NQO1 enzymatic activity (modified Prochaska assay) in RAW264.7; assay type: cell-based; conditions: RAW264.7, 24 h
# Experimental: Consistent with induction of Nrf2 target genes and corresponding protein products, treatment of RAW264.7 mouse macrophage cells for 24 h increased NQO1 enzymatic activity in a dose-dependent manner, with increases evident at 7.8 nM (FIG. 7). NQO1 enzymatic activity was measured by a modified Prochaska assay (Prochaska and Santamaria, Anal Biochem. 169:328-336, 1988, which is incorporated herein by reference).
# CYP2B6 = CYP2B6 (Homo sapiens, UniProt P20813); assay: CYP450 inhibition in pooled human liver microsomes, CYP2B6; assay type: in vitro ADME; conditions: highest concentration tested (3 μM)
# Chain of CYP2B6 (P20813 whole entry): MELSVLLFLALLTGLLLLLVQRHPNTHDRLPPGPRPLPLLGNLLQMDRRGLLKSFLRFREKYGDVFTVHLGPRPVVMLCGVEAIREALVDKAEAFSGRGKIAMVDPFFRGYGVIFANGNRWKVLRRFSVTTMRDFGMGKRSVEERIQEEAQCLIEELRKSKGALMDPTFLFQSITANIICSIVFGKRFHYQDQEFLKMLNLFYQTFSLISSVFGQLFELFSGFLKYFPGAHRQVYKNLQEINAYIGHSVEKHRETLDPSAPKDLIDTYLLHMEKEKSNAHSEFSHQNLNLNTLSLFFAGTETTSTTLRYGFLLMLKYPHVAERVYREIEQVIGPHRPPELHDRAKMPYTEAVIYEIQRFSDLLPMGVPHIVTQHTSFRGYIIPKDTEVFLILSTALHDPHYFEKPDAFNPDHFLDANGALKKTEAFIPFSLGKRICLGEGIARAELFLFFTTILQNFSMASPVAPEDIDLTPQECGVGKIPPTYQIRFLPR
# From the text: (§1) In addition, there was little or no evidence of metabolism-dependent inhibition of any of the enzymes tested.
# [4] = tested on: pyruvate in C2Cl2 muscle cells; assay: Pyruvate levels in C2Cl2 myotubes; assay type: cell-based, rodent; conditions: differentiated C2Cl2 myotubes; 250 nM or 500 nM, 18 h
# Experimental: Following drug treatment, media was removed and cells were washed with PBS. Cells were lysed in Pyruvate Assay Buffer (Pyruvate Assay Kit, BioVision, Catalog # K609-100). Cell lysates were centrifuged (10 min at 14,000 rpm, 4° C.) and pyruvate levels were measured in the supernatant.
# CYP1A2 = CYP1A2 (Homo sapiens, UniProt P05177); assay: in vitro; assay type: in vitro ADME; conditions: microsomes
# Chain of CYP1A2 (P05177 whole entry): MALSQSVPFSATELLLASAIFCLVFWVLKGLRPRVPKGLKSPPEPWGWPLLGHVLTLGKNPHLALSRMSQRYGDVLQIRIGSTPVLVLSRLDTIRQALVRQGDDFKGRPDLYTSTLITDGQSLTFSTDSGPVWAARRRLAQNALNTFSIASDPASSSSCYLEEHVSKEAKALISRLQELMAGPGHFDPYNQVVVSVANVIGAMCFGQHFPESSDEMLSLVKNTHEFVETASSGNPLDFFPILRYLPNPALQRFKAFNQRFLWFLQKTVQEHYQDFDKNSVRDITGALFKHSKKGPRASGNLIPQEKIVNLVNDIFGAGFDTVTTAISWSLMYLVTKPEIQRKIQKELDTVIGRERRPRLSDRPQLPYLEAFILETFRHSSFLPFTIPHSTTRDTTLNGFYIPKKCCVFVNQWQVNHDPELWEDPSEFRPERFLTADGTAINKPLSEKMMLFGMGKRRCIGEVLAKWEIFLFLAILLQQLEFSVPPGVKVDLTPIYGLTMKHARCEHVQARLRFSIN
# From the text: as §1
# [5] = tested on: LPS-induced pulmonary inflammation; assay: LPS-induced pulmonary inflammation in mice
# [6] = 3 and 10 mg/kg daily for 28 days
structure (smiles),measurement,setting,value
"CC1(C)CC[C@]2(NC(=O)C(C)(F)F)CC[C@]3(C)[C@H](C(=O)C=C4[C@@]5(C)C=C(C#N)C(=O)C(C)(C)[C@@H]5CC[C@]43C)[C@@H]2C1 [RTA 408, N-((4aS,6aR,6bS,8aR,12aS,14aR,14bS)-11-cyano-2,2,6a,6b,9,9,12a-heptamethyl-10,14-dioxo-1,2,3,4,4a,5,6,6a,6b,7,8,8a,9,10,12a,14,14a,14b-octadecahydropicen-4a-yl)-2,2-difluoropropanamide]",% animal-days >=2,[1]; oral 3 mg/kg,32.5%
same,% animal-days >=3,[1]; oral 3 mg/kg,1.3%
same,"% mice scored above 3 in clinical dermatitis exam, Day 16",[1]; oral 3 mg/kg,10%
same,"% mice scored above 3 in clinical dermatitis exam, Day 18",[1]; oral 3 mg/kg,10%
same,"% mice scored above 3 in clinical dermatitis exam, Day 20",[1]; oral 3 mg/kg,0%
same,"% mice scored above 3 in clinical dermatitis exam, Day 22",[1]; oral 3 mg/kg,0%
same,"% mice scored above 3 in clinical dermatitis exam, Day 24",[1]; oral 3 mg/kg,0%
same,"% mice scored above 3 in clinical dermatitis exam, Day 26",[1]; oral 3 mg/kg,0%
same,"% mice scored above 3 in clinical dermatitis exam, Day 28",[1]; oral 3 mg/kg,0%
same,% animal-days >=2,[1]; oral 10 mg/kg,33.8%
same,% animal-days >=3,[1]; oral 10 mg/kg,4.1%
same,"% mice scored above 3 in clinical dermatitis exam, Day 16",[1]; oral 10 mg/kg,10%
same,"% mice scored above 3 in clinical dermatitis exam, Day 18",[1]; oral 10 mg/kg,25%
same,"% mice scored above 3 in clinical dermatitis exam, Day 20",[1]; oral 10 mg/kg,30%
same,"% mice scored above 3 in clinical dermatitis exam, Day 22",[1]; oral 10 mg/kg,0%
same,"% mice scored above 3 in clinical dermatitis exam, Day 24",[1]; oral 10 mg/kg,0%
same,"% mice scored above 3 in clinical dermatitis exam, Day 26",[1]; oral 10 mg/kg,0%
same,"% mice scored above 3 in clinical dermatitis exam, Day 28",[1]; oral 10 mg/kg,0%
same,% animal-days >=2,[1]; oral 30 mg/kg,28.8%
same,% animal-days >=3,[1]; oral 30 mg/kg,2.5%
same,"% mice scored above 3 in clinical dermatitis exam, Day 16",[1]; oral 30 mg/kg,10%
same,"% mice scored above 3 in clinical dermatitis exam, Day 18",[1]; oral 30 mg/kg,20%
same,"% mice scored above 3 in clinical dermatitis exam, Day 20",[1]; oral 30 mg/kg,10%
same,"% mice scored above 3 in clinical dermatitis exam, Day 22",[1]; oral 30 mg/kg,0%
same,"% mice scored above 3 in clinical dermatitis exam, Day 24",[1]; oral 30 mg/kg,0%
same,"% mice scored above 3 in clinical dermatitis exam, Day 26",[1]; oral 30 mg/kg,0%
same,"% mice scored above 3 in clinical dermatitis exam, Day 28",[1]; oral 30 mg/kg,0%
same,% animal-days >=2,[1]; topical 0.01% in sesame oil,14.4%
same,% animal-days >=3,[1]; topical 0.01% in sesame oil,0.0%
same,"% mice scored above 2 in clinical dermatitis exam, Day 12",[1]; topical 0.01% in sesame oil,0.0%
same,"% mice scored above 2 in clinical dermatitis exam, Day 14",[1]; topical 0.01% in sesame oil,0.0%
same,"% mice scored above 2 in clinical dermatitis exam, Day 16",[1]; topical 0.01% in sesame oil,20.0%
same,"% mice scored above 2 in clinical dermatitis exam, Day 18",[1]; topical 0.01% in sesame oil,50.0%
same,"% mice scored above 2 in clinical dermatitis exam, Day 20",[1]; topical 0.01% in sesame oil,10.0%
same,"% mice scored above 2 in clinical dermatitis exam, Day 22",[1]; topical 0.01% in sesame oil,40.0%
same,"% mice scored above 2 in clinical dermatitis exam, Day 24",[1]; topical 0.01% in sesame oil,40.0%
same,"% mice scored above 2 in clinical dermatitis exam, Day 26",[1]; topical 0.01% in sesame oil,40.0%
same,"% mice scored above 2 in clinical dermatitis exam, Day 28",[1]; topical 0.01% in sesame oil,20.0%
same,"% mice scored above 2 in clinical dermatitis exam, Day 30",[1]; topical 0.01% in sesame oil,10.0%
same,% animal-days >=2,[1]; topical 0.1% in sesame oil,16.3%
same,% animal-days >=3,[1]; topical 0.1% in sesame oil,0.0%
same,"% mice scored above 2 in clinical dermatitis exam, Day 12",[1]; topical 0.1% in sesame oil,7.1%
same,"% mice scored above 2 in clinical dermatitis exam, Day 14",[1]; topical 0.1% in sesame oil,10.0%
same,"% mice scored above 2 in clinical dermatitis exam, Day 16",[1]; topical 0.1% in sesame oil,20.0%
same,"% mice scored above 2 in clinical dermatitis exam, Day 18",[1]; topical 0.1% in sesame oil,80.0%
same,"% mice scored above 2 in clinical dermatitis exam, Day 20",[1]; topical 0.1% in sesame oil,60.0%
same,"% mice scored above 2 in clinical dermatitis exam, Day 22",[1]; topical 0.1% in sesame oil,40.0%
same,"% mice scored above 2 in clinical dermatitis exam, Day 24",[1]; topical 0.1% in sesame oil,30.0%
same,"% mice scored above 2 in clinical dermatitis exam, Day 26",[1]; topical 0.1% in sesame oil,10.0%
same,"% mice scored above 2 in clinical dermatitis exam, Day 28",[1]; topical 0.1% in sesame oil,0.0%
same,"% mice scored above 2 in clinical dermatitis exam, Day 30",[1]; topical 0.1% in sesame oil,0.0%
same,% animal-days >=2,[1]; topical 1.0% in sesame oil,9.7%
same,% animal-days >=3,[1]; topical 1.0% in sesame oil,0.0%
same,"% mice scored above 2 in clinical dermatitis exam, Day 12",[1]; topical 1.0% in sesame oil,10.7%
same,"% mice scored above 2 in clinical dermatitis exam, Day 14",[1]; topical 1.0% in sesame oil,20.0%
same,"% mice scored above 2 in clinical dermatitis exam, Day 16",[1]; topical 1.0% in sesame oil,10.0%
same,"% mice scored above 2 in clinical dermatitis exam, Day 18",[1]; topical 1.0% in sesame oil,70.0%
same,"% mice scored above 2 in clinical dermatitis exam, Day 20",[1]; topical 1.0% in sesame oil,30.0%
same,"% mice scored above 2 in clinical dermatitis exam, Day 22",[1]; topical 1.0% in sesame oil,10.0%
same,"% mice scored above 2 in clinical dermatitis exam, Day 24",[1]; topical 1.0% in sesame oil,0.0%
same,"% mice scored above 2 in clinical dermatitis exam, Day 26",[1]; topical 1.0% in sesame oil,0.0%
same,"% mice scored above 2 in clinical dermatitis exam, Day 28",[1]; topical 1.0% in sesame oil,0.0%
same,"% mice scored above 2 in clinical dermatitis exam, Day 30",[1]; topical 1.0% in sesame oil,0.0%
same,Animals with Mild trichrome staining intensity,[2]; 3 mg/kg,0
same,Animals with Minimal trichrome staining intensity,[2]; 3 mg/kg,0
same,Animals with Moderate trichrome staining intensity,[2]; 3 mg/kg,7
same,Animals with Mild trichrome staining intensity,[2]; 10 mg/kg,4
same,Animals with Minimal trichrome staining intensity,[2]; 10 mg/kg,3
same,Animals with Moderate trichrome staining intensity,[2]; 10 mg/kg,1
same,Tolerability of 30-mg/kg dose (stopped on day 14),[2]; 30 mg/kg daily oral gavage,excessive dehydration and diarrhea
same,PMN cell infiltration into the lungs,[2]; [6],significantly suppressed polymorphonuclear (PMN) cell infiltration into the lungs
same,Reduction in hydroxyproline deposition,[2]; [6],10%-20%
same,Lung Nrf2 target enzyme activity,[2]; rats exposed to bleomycin,"significantly and dose-dependently increased NQO1, Txnrd, Gsr, and Gst enzyme activity"
same,B cells within the airways,ovalbumin-induced asthma; 30 mg/kg,significantly reduced the number and percentage of B cells within the airways
same,Macrophages detected in the airways,ovalbumin-induced asthma; 3 and 30 mg/kg,significantly reduced the number of macrophages
same,Concentration at which increases in NQO1 enzymatic activity were evident,[3],7.8 nM
same,inhibition at 3 µM,CYP2B6,< 50%
same,Intracellular pyruvate levels,[4],increased intracellular pyruvate levels in a dose-dependent manner
same,inhibition at 3 µM,CYP1A2,< 50%
same,"BALF cytokines, second study",[5]; 10 mg/kg daily for six days,Significant reductions in TNF-α
same,"BALF cytokines, second study",[5]; 30 mg/kg daily for six days,"significant reductions in IL-12p40, TNF-α, and RANTES"
same,"Body weight, second study","[5]; 100 mg/kg daily, starting on Day 3",significant decreases in body weight
same,"Lung NQO1 enzyme activity (with increases in total GSH), second study",[5]; 10 and 30 mg/kg,significant induction of NQO1 enzyme activity
same,"BALF pro-inflammatory markers, first study","[5]; 30, 100, or 150 mg/kg orally once daily for three days",significant reduction in IL-12p40 at all doses and in TNF-α at the 100 and 150 mg/kg doses
same,"Peak reductions in TNF-α, IL-6, and IL-12 in BALF","[5]; QD×3, LPS 1 h after last dose, BALB/c mice",50%-80%
